Blank lines part the entries; values can stand above or below the compound they belong to.
Columns and labels:
FAP [1] = details: cited from earlier work
[2] = vis-à-vis FAPI-04; cited from earlier work
FAP [3] = target: T1, FAP (Homo sapiens, UniProt Q12884); experiment: Competitive binding assay against [^111In]In-FAPI-46 in HT-1080.hFAP cells; details: 37° C., 1 h
T1 construct: expressed in transfected cells; host or cells: HT-1080.hFAP
T1 sequence (Q12884 1-760): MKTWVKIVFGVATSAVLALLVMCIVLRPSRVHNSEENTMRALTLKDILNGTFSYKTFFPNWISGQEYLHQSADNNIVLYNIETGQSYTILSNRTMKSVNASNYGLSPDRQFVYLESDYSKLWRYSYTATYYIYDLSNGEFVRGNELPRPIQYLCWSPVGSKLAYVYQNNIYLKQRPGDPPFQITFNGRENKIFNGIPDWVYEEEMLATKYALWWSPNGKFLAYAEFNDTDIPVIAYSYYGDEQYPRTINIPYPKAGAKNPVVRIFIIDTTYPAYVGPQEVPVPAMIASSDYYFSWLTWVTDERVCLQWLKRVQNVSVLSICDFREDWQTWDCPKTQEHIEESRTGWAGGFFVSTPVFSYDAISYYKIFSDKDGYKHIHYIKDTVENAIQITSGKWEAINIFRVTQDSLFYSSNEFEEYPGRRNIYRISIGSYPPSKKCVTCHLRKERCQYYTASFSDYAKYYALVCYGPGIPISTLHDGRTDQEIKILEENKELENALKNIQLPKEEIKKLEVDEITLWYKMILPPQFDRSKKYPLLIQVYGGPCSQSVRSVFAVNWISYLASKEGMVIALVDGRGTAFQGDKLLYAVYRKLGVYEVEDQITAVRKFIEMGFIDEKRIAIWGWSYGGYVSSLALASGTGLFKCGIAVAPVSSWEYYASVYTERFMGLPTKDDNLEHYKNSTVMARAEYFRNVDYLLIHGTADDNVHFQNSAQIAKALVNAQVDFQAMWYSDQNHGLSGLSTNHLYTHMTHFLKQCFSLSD
Description: The U-87 MG glioblastoma was cultured at 37° C. and 5% CO2 in Dulbecco's Modified Eagle Medium (DMEM) supplemented with 10% (v/v) fetal calf serum. HT-1080.hFAP cells were kept in culture in DMEM medium supplemented with fetal bovine serum (10%, FBS) and antibiotic antimycotic (1%, AA) at 37° C. and 5% CO2. For passaging, cells were detached using Trypsin-EDTA 0.05% when reaching 90% confluence and re-seeded at a dilution of 1:4.
Competition binding experiments were conducted by incubation of the [^111In]In-FAPI-46 radioligand with increasing concentrations of eFAP compound in HT-1080.hFAP cells at 37° C. for 1 h. Cells were then washed three times with binding buffer and lysed. The cell-associated radioactivity was measured in a γ-counter. The IC50 values were calculated by fitting the data by non-linear regression using GraphPad Prism.
Results with FABI-46 obtained in the same assay is included for comparison.

SMILES: N#C[C@@H]1CC(F)(F)CN1C(=O)CNC(=O)c1ccnc2ccccc12 [UAMC-1110]
affinity to FAP (in words) (FAP [1]): nanomolar affinity to FAP

SMILES: CN(CCCN1CCN(C(=O)CN2CCN(CC(=O)O)CCN(CC(=O)O)CCN(CC(=O)O)CC2)CC1)c1ccc2nccc(C(=O)NCC(=O)N3CC(F)(F)C[C@H]3C#N)c2c1 [FAPI-46]
tumor-to-organ ratios (in words) [2]: improved tumor-to-organ ratios

binding affinity for FAP (in words) (FAP [3]): low nano-molar binding affinity for FAP
SMILES: N#C[C@@H]1CC(F)(F)CN1C(=O)CNC(=O)c1ccnc2c(OCCCNC(=O)CN3CCN(CC(=O)O)CCN(CC(=O)O)CCN(CC(=O)O)CC3)cccc12 [eFAP-6, (S)-2,2′,2″-(10-(2-((3-((4-((2-(2-Cyano-4,4-difluoropyrrolidin-1-yl)-2-oxoethyl)carbamoyl)quinolin-8-yl)oxy)propyl)amino)-2-oxoethyl)-1,4,7,10-tetraazacyclododecane-1,4,7-triyl)triacetic acid]

— US20260327242A1, “Platform and Scaffold for FAP Targeting Agents” (Erasmus University Medical Center Rotterdam, priority 2022, published 2026)
